Experimental data as given in US20090181972A1, “Novel Inhibitors of Cysteine Proteases, the Pharmaceutical Compositions Thereof and their Therapeutic Applications” (priority 2005, published 2009).

How the values were obtained:
USP7 = biological target: T1, USP7 (Homo sapiens, UniProt Q93009); assay: USP7 activity assay; format: biochemical; conditions: 400 nM Ub-AMC, 152 pM enzyme; pre-incubated 30 minutes at 25° C., 60 minutes at 37° C.; sigmoidal fit; read-out: USP 7
T1 construct: His tag (pFastBac-HT vector) (N); made in house; host or cells: Sf9 or High Five insect cells (baculovirus)
From the text: The cDNA encoding USP7 was obtained by PCR amplification from placenta mRNA. USP7 cDNA was subcloned by PCR into a baculovirus expression vector (pFastBac-HT; Invitrogen). A cDNA encoding a mutated USP7 was generated by mutagenic PCR. The corresponding protein encodes a cysteine to alanine substitution at residue 223. The sequences were ascertained by sequencing of the entire open reading frame. Bacmids encoding USP7 were generated following DH10bac transposition. The corresponding bacmids were transfected into insect cells (Sf9). Viruses were recovered from culture supernatant and amplified twice. Insect cells (Sf9 or High Five; lnvitrogen) were infected for 72 hours. Total cell lysates were harvested and lyzed in lysis buffer (Tris HCl 50 mM pH 7.6; 0.75 % NP40; 500 mM NaCl; 10% glycerol; 1 mM DTT; 10 mM imidazole; Protease Inhibitor Cocktail; AEBSF 20 μg.ml^−1; Aprotinin 10 μg.ml^−1). Proteins were affinity purified on metal affinity resins (Talon Metal affinity resin; BD Biosciences). Bound materials were extensively washed in wash buffer (50 mM Sodium Phosphate pH 7.0; 300 mM NaCl; 10 mM imidazole; 0.5% Triton X-100; 10% glycerol) and eluted from the resin in 250 mM imidazole-containing wash buffer. Proteins were dialyzed in dialysis buffer (Tris HCl pH 7.6 20 mM; NaCl 200 mM; DTT 1 mM; EDTA 1 mM; 10% Glycerol). Proteins purifications were analyzed on 4-12% NuPAGE (Invitrogen).
USP7 was diluted in USP buffer (50 mM Tris HCl; 0.5 mM EDTA; 5 mM DTT; 0.01 % Triton X-100; Bovine Serum Albumin 0.05 mg.ml^−1 pH 7.6). Compounds stocks (100 mM) were stored at −20° C. in DMSO. Compounds were tested at the following final concentrations: 100 μM; 33.3 μM; 11.1 μM; 3.7 μM; 1.23 μM; 412 nM; 137 nM; 45.7 nM; 15.2 nM; 5 nM.
Reactions were performed as duplicates in Black LJL 96 well plates (HE microplates; Molecular Devices; 20 μl final reaction volume). The substrate concentration for USP7 was 400 nM Ub-AMC (Chem. Biol., 2003, 10, p. 837-846) (Boston Biochem). The concentrations of the enzyme (USP7) in specificity assays was 152 pM. The concentrations were determined in order to perform specificity assays under initial velocities at fixed substrate concentration. Compounds were pre-incubated with enzymes for 30 minutes at 25° C. Reactions were initiated by addition of substrate to the plates containing the enzymes (+/− compounds) diluted in assay buffer. Reactions were incubated for 60 minutes at 37° C. Reactions were stopped by adding acetic acid (100 mM final). Readings were performed on a Pherastar Fluorescent Reader (BMG). λ Emission 380 nm; λ Excitation=460 nm. Data (mean values +/− standard deviation) were analyzed as % of control (no compound) and plotted as percentage versus the Log of the compound concentration using GraphPad (Prism). Data were fitted to a sigmoidal model (variable slope).

Caspase 3 = biological target: T2, Caspase 3 (Homo sapiens, UniProt P42574); assay: Caspase 3 activity assay; format: biochemical; conditions: 500 nM Ac-DEVD-AMC, 3.2 nM enzyme; pre-incubated 30 minutes at 25° C., 60 minutes at 37° C.; sigmoidal fit
T2 sequence (P42574 29-175 limits assumed): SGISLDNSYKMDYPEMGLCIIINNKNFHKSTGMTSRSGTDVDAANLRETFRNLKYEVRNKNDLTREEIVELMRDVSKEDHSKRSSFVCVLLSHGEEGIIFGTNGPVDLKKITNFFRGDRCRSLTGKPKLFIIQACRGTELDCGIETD
T2 sequence (P42574 176-277 limits assumed): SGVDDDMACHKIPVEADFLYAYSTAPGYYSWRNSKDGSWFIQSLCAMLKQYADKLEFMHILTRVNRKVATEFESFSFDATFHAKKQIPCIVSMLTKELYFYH
Protocol: Caspase 3 was diluted in Caspase 3 buffer (100 mM Hepes pH 7.5; 10% sucrose; 0.1% CHAPS). Compounds stocks (100 mM) were stored at −20° C. in DMSO. Compounds were tested at the following final concentrations: 100 μM; 33.3 μM; 11.1 μM; 3.7 μM; 1.23 μM; 412 nM; 137 nM; 45.7 nM; 15.2 nM; 5 nM. Reactions were performed as duplicates in Black LJL 96 well plates (HE microplates; Molecular Devices; 20 μl final reaction volume). The substrate concentration for caspase 3 specificity assay was 500 nM (Ac-DEVD-AMC; Promega). The concentration of the enzyme (Caspase 3) in specificity assays was 3.2 nM. The concentrations were determined in order to perform specificity assays under initial velocities at fixed substrate concentration. Compounds were pre-incubated with enzymes for 30 minutes at 25° C. Reactions were initiated by addition of substrate to the plates containing the enzymes (+/− compounds) diluted in assay buffer. Reactions were incubated for 60 minutes at 37° C. Reactions were stopped by adding acetic acid (100 mM final). Readings were performed on a Pherastar Fluorescent Reader (BMG). δ Emission 380 nm; δ Excitation=460 nm. Data (mean values +/− standard deviation) were analyzed as % of control (no compound) and plotted as percentage versus the Log of the compound concentration using GraphPad (Prism). Data were fitted to a sigmoidal model (variable slope).

T1 sequence (Q93009 whole entry): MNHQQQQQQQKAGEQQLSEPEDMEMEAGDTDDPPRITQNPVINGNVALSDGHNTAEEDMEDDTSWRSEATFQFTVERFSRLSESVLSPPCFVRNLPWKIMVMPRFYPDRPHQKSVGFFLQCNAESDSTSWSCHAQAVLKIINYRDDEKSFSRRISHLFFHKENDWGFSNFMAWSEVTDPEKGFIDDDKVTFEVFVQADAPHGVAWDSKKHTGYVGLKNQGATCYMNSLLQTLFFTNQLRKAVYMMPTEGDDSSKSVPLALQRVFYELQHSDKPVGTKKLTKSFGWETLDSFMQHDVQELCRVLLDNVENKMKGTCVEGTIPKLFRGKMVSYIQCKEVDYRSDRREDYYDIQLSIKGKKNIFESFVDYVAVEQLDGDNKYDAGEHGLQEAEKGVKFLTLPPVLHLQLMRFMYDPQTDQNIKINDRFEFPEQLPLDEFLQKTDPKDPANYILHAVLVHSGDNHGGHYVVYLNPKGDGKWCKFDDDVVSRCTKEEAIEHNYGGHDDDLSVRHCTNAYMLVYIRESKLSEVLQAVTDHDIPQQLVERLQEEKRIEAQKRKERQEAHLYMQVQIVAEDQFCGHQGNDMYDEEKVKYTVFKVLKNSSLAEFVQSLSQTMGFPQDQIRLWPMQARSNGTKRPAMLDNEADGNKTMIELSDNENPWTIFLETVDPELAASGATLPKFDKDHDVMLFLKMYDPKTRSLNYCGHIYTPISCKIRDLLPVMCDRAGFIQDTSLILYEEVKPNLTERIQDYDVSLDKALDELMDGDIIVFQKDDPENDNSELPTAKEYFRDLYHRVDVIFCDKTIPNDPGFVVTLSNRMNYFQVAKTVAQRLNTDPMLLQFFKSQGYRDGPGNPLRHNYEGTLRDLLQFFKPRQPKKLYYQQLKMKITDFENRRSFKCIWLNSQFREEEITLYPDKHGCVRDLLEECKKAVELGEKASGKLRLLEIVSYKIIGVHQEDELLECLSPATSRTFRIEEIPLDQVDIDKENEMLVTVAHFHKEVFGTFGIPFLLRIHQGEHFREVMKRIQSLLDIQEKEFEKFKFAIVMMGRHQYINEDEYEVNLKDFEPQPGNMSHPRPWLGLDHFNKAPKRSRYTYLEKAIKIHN

Row | Molecule | IC50 (USP7) [µM] | IC50 (Caspase 3) [µM]
1 | 6-(7)-Chloro-1-methyl-2,3,4,10,10a-pentaaza-cyclopenta[b]fluoren-9-one [Example 3/A] | 2.8 | 1.51
2 | CC(C)c1nnc2nc3c(nn12)C(=O)c1ccccc1-3 [Example 1l/A, 1-lsopropyl-2,3,4,10,10a-pentaaza-cyclopenta[b]fluoren-9-one] | – | 5
3 | CC(C)c1nnc2nc3c(nn12)-c1ccccc1C3=O [Example 1l/B, 3-Isopropyl-1,2,3a,4,10-pentaaza-cyclopenta[b]fluoren-9-one] | 0.82 | –
4 | O=C1c2ccccc2-c2nn3c(C(F)(F)F)nnc3nc21 [Example 1m/B, 3-Trifluoromethyl-1,2,3a,4,10-pentaaza-cyclopenta[b]fluoren-9-one] | 0.226 | –
5 | COCCOCCOCc1nnc2nc3c(nn12)C(=O)c1ccccc1-3 [Example 1n/A, 1-[2-(2-Methoxy-ethoxy)-ethoxymethyl]-2,3,4,10,10a-pentaaza-cyclopenta[b]fluoren-9-one] | 1.2 | –
6 | COc1cc2c(cc1OC)-c1nn3c(C)nnc3nc1C2=O [Example 5a/B, 6,7-Dimethoxy-3-methyl-1,2,3a,4,10-pentaaza-cyclopenta[b]fluoren-9-one] | 0.525 | –
7 | CCc1nnc2nc3c(nn12)C(=O)c1cc(OC)c(OC)cc1-3 [Example 5b/A, 1-Ethyl-6,7-dimethoxy-2,3,4,10,10a-pentaaza-cyclopenta[b]fluoren-9-one] | 13.3 | 5.2
8 | CCc1nnc2nc3c(nn12)-c1cc(OC)c(OC)cc1C3=O [Example 5b/B, 3-Ethyl-6,7-dimethoxy-1,2,3a,4,10-pentaaza-cyclopenta[b]fluoren-9-one] | 1.05 | 0.314
9 | CCCc1nnc2nc3c(nn12)-c1cc(OC)c(OC)cc1C3=O [Example 5c/B, 6,7-Dimethoxy-3-propyl-1,2,3a,4,10-pentaaza-cyclopenta[b]fluoren-9-one] | 0.936 | –
10 | CCc1nnc2nc3c(nn12)-c1c(OC)ccc(OC)c1C3=O [Example 6/B, 3-Ethyl-5,8-dimethoxy-1,2,3a,4,10-pentaaza-cyclopenta[b]fluoren-9-one] | 3.08 | –
